From patent US9834514B2, “Antibiotic sensitivity-restoring and photosensitive agents” (New Mexico Tech Research Foundation, priority 2015, dated 2017)
Converted amounts (≈) assume the structure as drawn. Where two headings read alike, the source gives them in different places.

Assays:
efflux pumps of MRSA = experiment: Fluorescent competition assay of compound 1 versus INF-55 and reserpine; type: binding; conditions: compound 1 at 5 μM
Method: INF-55 and reserpine, NorA EPIs, were used to compete with compound 1 for binding sites on MRSA. Since compound 1 is highly fluorescent, binding could be assessed by measuring the fluorescence at excitation wavelengths of 345 nm, 380 nm, 407 nm, and an emission wavelength of 508 nm. Fluorescent readings were taken every minute for 30 minutes at a lamp energy of 20,000 CW. MRSA cells (about 10^8 CFU/mL) were pelleted at 7500 rpm and resuspended in 1×PBS. The MRSA cells were then pretreated with the appropriate EPI at varying concentrations and incubated for 30 minutes at 37° C. at 150 rpm on a rotary shaker.
INF-55 (FIG. 2) and reserpine (FIG. 3) were added at 1 μM, 10 μM, 50 μM, and 100 μM. After incubation with the appropriate EPI, compound 1 was added at 5 μM and the samples were incubated for 10 minutes. The samples were then placed in a fluorescent plate reader for analysis. The controls used were as follows: 1×PBS, compound 1 (5 μM) in 1×PBS, each respective concentration of the EPI in 1×PBS, compound 1 (5 μM) added to MRSA cells, and each respective EPI added to MRSA cells. The instrument baseline fluorescence drift was corrected by subtracting the fluorescence measured at each time point for the 1×PBS control sample. The error bars represent data from three independent measurements.

[1] = tested on: S. pyogenes (ATCC No. 8133); experiment: MIC against S. pyogenes; type: cell-based; conditions: Streptococcus pyogenes, ATCC8133; compound alone
Source text: The error bars in FIG. 12 represent the variations between three replicate determinations.

MRSA = experiment: Minimum bactericidal concentration (MBC) with and without white light; type: cell-based, S. aureus; conditions: Staphylococcus aureus, light or radiation study
Method: The bacterial media was inoculated with bacteria and incubated overnight. The bacterial cultures were diluted to 5×10^8 CFU/mL using a McFarland latex turbidity standard (0.5). Compound 1 was diluted with sterile DMSO, which was added to the cell suspension in glass culture tubes. The cells were then incubated for 30 minutes at 37° C. on a rotary shaking incubator at 150 rpm. 500 μL of the treated cell suspension was added to a well on a sterile ceramic drop plate. Non-coherent white light from a Lumacare™ LC-122 unit was used to irradiate the samples. The end of the light probe was placed 3 cm above the sample well, perpendicular to the surface of the sample, and light was applied for 2 minutes (15 seconds light, 15 seconds dark). 200 μL of the irradiated sample was transferred to a 96-well plastic microtiter plate and five ten-fold dilutions were made in the media. 10 μL of each dilution was dripped onto an agar media plate and was allowed to streak down the plate by tilting the plate down. The agar plates were incubated at 37° C. overnight and colony counts were performed to calculate the CFU/mL.
TABLE 14 details the MBC values of compounds 1-6 against MRSA with and without irradiation with white light. Irradiation involved treatment with a LumaCare™ light source at 3 cm from media for 1 min.

MRSA (ATCC No. BAA-44) = experiment: Synergy of compound 1 with antibiotics, isobologram; type: cell-based, S. aureus; conditions: vancomycin, tetracycline, doxycycline, norfloxacin, dicloxicillin, oxacillin, penicillin G, tobramycin; FIGS. 14, 15
Source text: The synergy of two compounds with varying relative potencies can be represented using an isobologram. An isobologram plots the normalized effective concentrations of each drug on each axis, where the sum of the two concentrations equals the line of additivity. Outside the line of additivity, when the sum>1, the effect of the two drugs is considered antagonistic; inside of the line of additivity, when the sum<1, the effect of the two drugs is considered superadditive, or when the sum≦0.5, the effect of the two drugs is considered synergistic.
An illustrative example based on a single data point for each antibiotic in combination with compound 1 against MRSA (ATCC No. BAA-44) is shown in FIG. 14. A zoomed-in isobologram for the same data as shown in FIG. 14 is depicted in FIG. 15 specifically for the synergistic area.

A. baumannii = experiment: Treatment with compound 1 and PMB at fixed concentrations, with and without white light; type: cell-based
Source text: FIG. 53 is an example of the treatment of A. baumannii with compound 1 and PMB at fixed concentrations with and without irradiation using white light (λ).

E. coli = experiment: as above; type: cell-based
Source text: FIG. 54 is an example of the treatment of E. coli with compound 1 and PMB at fixed concentrations with and without irradiation using white light (λ).

S. pyogenes ATCC 8133 = experiment: Resensitization to antibiotics (log reduction, TABLE 29); type: cell-based; conditions: compound 1 μM; Light (2 min)
VRE (ATCC 51299) = experiment: Synergy with antibiotics against VRE; type: cell-based, Enterococcus faecalis
Method: For these experiments, overnight cultures of VRE were diluted to about 5×10^5 CFU/mL in TSB. Then, 1 mL of the diluted broth suspension was added to a borosilicate glass culture tube. After appropriate volumes of the compounds were added to the broth suspensions, the samples were mixed using a vortex mixer, and an appropriate volume of an antibiotic was added to the samples. The samples were mixed using a vortex mixer and incubated for 18 hours at 37° C. on a rotary shaking incubator. After 18 hours, the test cultures were diluted ten-fold, and 10 μL of each dilution was drip-streaked onto a TSA plate and incubated for 18 hours at 37° C. Colony counts were then performed and the CFU/mL values were calculated.
TABLE 24 details the MICs of common antibiotics against VRE. In a 12×75 mm borosilicate glass culture tube, 1 mL of cell suspension was added. Then, compound 7 was added to the cells, and the samples were mixed using a vortex mixer. […] The samples were incubated overnight at 37° C. on a rotary shaking incubator at 100 rpm. Inhibition observed visually compared to each individual treatment was considered synergistic.

## Clc1ccc(/C=C/c2[nH]c3ccccc3c2/C=C/c2ccc(Cl)cc2)cc1 [Compound 1]
Efflux pumps of MRSA; INF-55 1-100 μM, FIG. 2
  competition with INF-55 for binding (fluorescence): able to compete with INF-55 for binding to the efflux pumps of MRSA
Efflux pumps of MRSA; reserpine 1-100 μM, FIG. 3
  competition with reserpine for binding (fluorescence): able to compete with reserpine for binding to the efflux pumps of MRSA
[1]
  MIC: 100 µM (≈ 39 µg/mL)
MRSA; 1 min, LumaCare light source at 3 cm from media for 1 min, read-out: MBC with irradiation
  MBC: 1 µM (≈ 0.39 µg/mL)
MRSA; no irradiation, read-out: MBC in the dark
  MBC: 200 µM (≈ 78.1 µg/mL)
MRSA (ATCC No. BAA-44)
  synergy with antibiotics (isobologram): able to synergize with every tested antibiotic
A. baumannii; FIG. 53
  cell killing with compound 1, PMB and white light: PMB was more efficacious in cell killing when co-administered with compound 1 and light
A. baumannii; compared to either agent alone, FIG. 16
  killing by combination of compound 1 and PMB (CFU): effective at killing A. baumannii
E. coli; FIG. 54
  cell killing with compound 1, PMB and white light: PMB was more efficacious in cell killing when co-administered with compound 1 and light
E. coli; compared to either agent alone, FIG. 17
  killing by combination of compound 1 and PMB (CFU): effective at killing E. coli
S. pyogenes ATCC 8133
  Log Reduction: 6-7

## Brc1ccc(/N=N/c2c[nH]c3ccccc23)cc1 [Compound 8]
VRE (ATCC 51299); 7.5 μM of compound 8 with vancomycin, tetracycline, or norfloxacin, FIG. 43
  killing of VRE in conjunction with antibiotics: more effective at killing VRE

## Clc1ccc(/N=N/c2c[nH]c3ccccc23)cc1 [Compound 9]
VRE (ATCC 51299); 75 μM of compound 9 with tetracycline or norfloxacin, FIG. 44
  killing of VRE in conjunction with antibiotics: more effective at killing VRE
